biological target: T1, human PDE5 (Homo sapiens, UniProt O76074); experiment: Inhibition of the type 5 phosphodiesterase (PDE5) activity, modified SPA test with platelet lysate; type: biochemical; conditions: PDE5 from human platelet lysate, 0.5 μM cGMP
T1 construct: from tissue; host or cells: platelets from fresh blood of human donors (lysate, 10,000 g supernatant)
How it was run: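 Human platelet lysate (10,000 g supernatant) as PDE5 source in SPA with 0.5 μM cGMP plus [3H]cGMP tracer, pH 7.4, 5 mM Mg2+, 1 μM motapizone and 10 nM PDE2 inhibitor; 10–20% conversion. 5 min preincubation, 15 min at 37 °C, stopped with SPA beads/IBMX. IC50 by non-linear regression.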

Compared with COc1cc(OCC2CC2)c(-c2ncnc3c(C(=O)N[C@H]4CC[C@H](NC(=O)[C@H](C)O)CC4)c[nH]c23)cc1F [Example 234, trans-4-(2-Cyclopropylmethoxy-5-fluoro-4-methoxy-phenyl)-5H-pyrrolo[3,2-d]pyrimidine-7-carboxylic acid [4-((S)-2-hydroxy-propionylamino)-cyclohexyl]-amide], COc1cc(OCC2CC2)c(-c2ncnc3c(C(=O)N[C@H]4CC[C@H](NC(=O)C5(O)CC5)CC4)c[nH]c23)cc1F [Example 235, trans-4-(2-Cyclopropylmethoxy-5-fluoro-4-methoxy-phenyl)-5H-pyrrolo[3,2-d]pyrimidine-7-carboxylic acid {4-[(1-hydroxy-cyclopropanecarbonyl)-amino]-cyclohexyl}-amide] is 2.1-fold lower in IC50: 0.977 nM for the first, 0.457 nM for the second.

COc1cc(OCC2CC2)c(-c2ncnc3c(C(=O)NC4CCN(C(=O)CO)CC4)c[nH]c23)cc1F [Example 236, 4-(2-Cyclopropylmethoxy-5-fluoro-4-methoxy-phenyl)-5H-pyrrolo[3,2-d]pyrimidine-7-carboxylic acid [1-(2-hydroxy-ethanoyl)-piperidin-4-yl]amide] and COc1cc(OCC2CC2)c(-c2ncnc3c(C(=O)N[C@@H]4CCN(C(=O)CO)C4)c[nH]c23)cc1F [Example 241, 4-(2-Cyclopropylmethoxy-5-fluoro-4-methoxy-phenyl)-5H-pyrrolo[3,2-d]pyrimidine-7-carboxylic acid [(R)-1-(2-hydroxy-acetyl)pyrrolidin-3-yl]-amide] are within 1.5-fold of each other in IC50: 1.66 nM for the first, 1.35 nM for the second.

Going from COc1cc(OCC2CC2)c(-c2ncnc3c(C(=O)NC4CCN(C(=O)[C@H](C)O)CC4)c[nH]c23)cc1F [Example 237, 4-(2-Cyclopropylmethoxy-5-fluoro-4-methoxy-phenyl)-5H-pyrrolo[3,2-d]pyrimidine-7-carboxylic acid [1-((S)-2-hydroxy-propanoyl)piperidin-4-yl]-amide] to COc1cc(OCC2CC2)c(-c2ncnc3c(C(=O)N[C@@H]4CCN(C(=O)[C@H](C)O)C4)c[nH]c23)cc1F [Example 242, 4-(2-Cyclopropylmethoxy-5-fluoro-4-methoxy-phenyl)-5H-pyrrolo[3,2-d]pyrimidine-7-carboxylic acid [(R)-1-((S)-2-hydroxy-propionyl)pyrrolidin-3-yl]-amide], the IC50 rises from 0.617 nM to 0.977 nM (1.6-fold). The first is the more potent here.

Going from COc1cc(OCC2CC2)c(-c2ncnc3c(C(=O)NC4CCN(C(=O)C5(O)CC5)CC4)c[nH]c23)cc1F [Example 238, 4-(2-Cyclopropylmethoxy-5-fluoro-4-methoxy-phenyl)-5H-pyrrolo[3,2-d]pyrimidine-7-carboxylic acid {1-[1-(1-hydroxy-cyclopropyl)methanoyl]-piperidin-4-yl}-amide] to COc1cc(OCC2CC2)c(-c2ncnc3c(C(=O)N[C@H]4CCCN(C(=O)[C@H](C)O)C4)c[nH]c23)cc1F [Example 239, 4-(2-cyclopropylmethoxy-5-fluoro-4-methoxy-phenyl)-5H-pyrrolo[3,2-d]pyrimidine-7-carboxylic acid [(S)-1-((S)-2-hydroxy-propanoyl)piperidin-3-yl]-amide], the IC50 rises from 0.316 nM to 2.51 nM (7.9-fold). The first is the more potent here.

Going from COc1cc(OCC2CC2)c(-c2ncnc3c(C(=O)N[C@@H]4CCCN(C(=O)[C@H](C)O)C4)c[nH]c23)cc1F [Example 240, 4-(2-Cyclopropylmethoxy-5-fluoro-4-methoxy-phenyl)-5H-pyrrolo[3,2-d]pyrimidine-7-carboxylic acid [(R)-1-((S)-2-hydroxy-propanoyl)piperidin-3-yl]-amide] to Cc1ccc(OCC2CC2)c(-c2ncnc3c(C(=O)N[C@H]4CC[C@H](NC(=O)CO)CC4)c[nH]c23)c1 [Example 243, trans-4-(2-Cyclopropylmethoxy-5-methyl-phenyl)-5H-pyrrolo[3,2-d]pyrimidine-7-carboxylic acid [4-(2-hydroxy-acetylamino)-cyclohexyl]-amide], the IC50 rises from 0.501 nM to 2.29 nM (4.6-fold). The first is the more potent here.

— patent US8445501B2, “Substituted 7-carboxamido-pyrrolo[3,2-d]pyrimidines” (Takeda GmbH, priority 2008, dated 2013)
